The values below come from PubChem BioAssay (NCI).

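Assay format: 96-well plates, 48-hour exposure. TGI is the concentration that stops growth completely.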

The term TGI denotes the concentration at which net growth stops. A lower TGI goes with more potent growth arrest.

Among the test systems are UACC-62 melanoma; UACC-257 melanoma; HCT-15 colon; NCI-H460 lung; RPMI-8226 leukemia; RXF 393 renal; T-47D breast; A498 renal.
Test in all cases: DTP human tumour cell line panel, 48 h

Take `Cc1cccc2c1CC(Cc1ccccc1C(=O)O)C2=O` (stereo not given): the TGI with UACC-62 melanoma, with UACC-257 melanoma, in the test with HCT-15 colon, in the test with NCI-H460 lung, in the test with RPMI-8226 leukemia and in the test with RXF 393 renal was greater than 100 µM in each case. In the test on T-47D breast, the TGI is greater than 100 µM.
With `CCOC(=O)N1CCN(c2c(N)nc(C)[nH]c2=O)CC1`, the TGI in the test on UACC-257 melanoma, with HCT-15 colon, in the test on NCI-H460 lung, in the test on A498 renal, with RPMI-8226 leukemia and with T-47D breast was greater than 100 µM throughout.
As for `Cc1cc(-c2ccccc2)nc2oc(=O)n(C)c12`, the total growth inhibition concentration (TGI) in the test with UACC-62 melanoma, in the test with UACC-257 melanoma, in the test with HCT-15 colon, with NCI-H460 lung, with A498 renal and in the test with RXF 393 renal was greater than 100 µM each time. Further, the TGI in the test on T-47D breast is greater than 100 µM.
In the case of `O=c1c2ccc(Cl)cc2oc2c(CNc3ccc(S(=O)(=O)Nc4ncccn4)cc3)cccc12`, the TGI in the test on UACC-62 melanoma, in the test with UACC-257 melanoma, in the test on HCT-15 colon, in the test on A498 renal, with RPMI-8226 leukemia and in the test on T-47D breast was greater than 100 µM in each case.
As for `Cc1ccc(C)c(COCCOCn2cc(N3CCOCC3)c(=O)[nH]c2=O)c1`, the TGI in the test on UACC-62 melanoma, in the test on UACC-257 melanoma, in the test on HCT-15 colon, in the test with NCI-H460 lung, with A498 renal and in the test with RXF 393 renal was greater than 100 µM in each case. Also, the TGI in the test on T-47D breast is greater than 100 µM.
Turning to `CNC(=S)N1CCN(C(C)=O)C1=S`, the TGI with UACC-62 melanoma is greater than 100 µM; in the test on UACC-257 melanoma, greater than 100 µM; in the test with HCT-15 colon, greater than 100 µM; with NCI-H460 lung it was greater than 100 µM; in the test on A498 renal, greater than 100 µM; in the test on T-47D breast it was 90.7 µM.
For `CS(=O)(=O)Nc1ccc2ccccc2c1`, the TGI with UACC-62 melanoma, with UACC-257 melanoma, in the test with HCT-15 colon, in the test with NCI-H460 lung, with A498 renal and with RPMI-8226 leukemia was greater than 100 µM throughout. The molecule further returned a TGI in the test on T-47D breast greater than 100 µM.
For `O=C(Nc1nn(C(=O)c2cccnc2)c(=O)s1)c1ccc(Cl)cc1`, the TGI was greater than 100 µM in the test on UACC-62 melanoma; greater than 100 µM with UACC-257 melanoma; greater than 100 µM in the test on HCT-15 colon; greater than 100 µM in the test on NCI-H460 lung; greater than 100 µM in the test on A498 renal; 93.8 µM in the test with RXF 393 renal. The TGI in the test on T-47D breast is greater than 100 µM.
On to `CC(=N/NC(=S)N(C)C)/C(=N\NC(=S)N(C)C)c1ccccc1`, for which the TGI in the test on UACC-62 melanoma was 4.44 µM; with UACC-257 melanoma, 4.19 µM; in the test with HCT-15 colon, 4.36 µM; with NCI-H460 lung, 3.91 µM; in the test with A498 renal, 3.12 µM; in the test on RXF 393 renal, 2.95 µM. Further, the TGI in the test with T-47D breast is 3.54 µM.
On to `Cc1cc(-c2cc(C(C)(C)C)c(O)c(C(C)(C)C)c2)c(C)cc1-c1cc(C(C)(C)C)c(O)c(C(C)(C)C)c1`, for which the TGI in the test with UACC-62 melanoma was greater than 100 µM; in the test on UACC-257 melanoma, greater than 100 µM; in the test on HCT-15 colon, greater than 100 µM; with A498 renal it was 92.7 µM; in the test on RPMI-8226 leukemia, greater than 100 µM; in the test on T-47D breast it was greater than 100 µM.
Consider `O=C1CC[C@@]23CC(=O)O[C@@H]2CCCC3C1` (stereo not given in full), for which the TGI in the test on UACC-62 melanoma, with UACC-257 melanoma, with HCT-15 colon, in the test with NCI-H460 lung, with RPMI-8226 leukemia and in the test with RXF 393 renal was greater than 100 µM in each case. This molecule displayed a TGI in the test with T-47D breast greater than 100 µM.
As to `CCOC(=O)[C@@H](Cc1ccc(CCl)cc1)NC(C)=O`, the TGI in the test with UACC-62 melanoma came to 31.5 µM; with UACC-257 melanoma, 40.2 µM; in the test on HCT-15 colon it was 94.1 µM; in the test with NCI-H460 lung, 43.2 µM; in the test with RPMI-8226 leukemia, 88.4 µM; in the test with RXF 393 renal, 30.3 µM. In the test on T-47D breast, this molecule returned a TGI of 93.7 µM.
Take `CCN(CC)C(=S)N/N=C(/c1ccccc1)c1ccccn1`: the TGI with UACC-257 melanoma is 2.56 µM; in the test on HCT-15 colon, greater than 36.9 µM; in the test with NCI-H460 lung, 0.385 µM; in the test with A498 renal, 2.38 µM; in the test on RPMI-8226 leukemia, 45.1 µM; in the test on RXF 393 renal, 8.63 µM.
As for `O=c1c2c3c(sc2nc2n1N=C(c1ccc(Br)cc1)CS2)CCCC3`, the TGI with UACC-62 melanoma, in the test with UACC-257 melanoma, in the test with HCT-15 colon, in the test with NCI-H460 lung, with A498 renal and in the test on RXF 393 renal was greater than 100 µM throughout. In the test on T-47D breast, this molecule displayed a TGI greater than 100 µM.
As to `CC[C@H](NC(=O)OC(C)(C)C)C(=O)NCP(=O)(OCc1ccc([N+](=O)[O-])cc1)OCc1ccc([N+](=O)[O-])cc1`, the TGI in the test on UACC-62 melanoma is 51.9 µM; in the test with UACC-257 melanoma, 26.9 µM; with HCT-15 colon, greater than 100 µM; with NCI-H460 lung it was greater than 100 µM; with RPMI-8226 leukemia, greater than 100 µM; in the test with T-47D breast it was greater than 100 µM.
On to `CC(C)(C)/C(O)=C\c1nc2cc(F)c(F)cc2[nH]c1=O`, for which the TGI with UACC-62 melanoma, with UACC-257 melanoma, in the test with HCT-15 colon, in the test on NCI-H460 lung, with A498 renal and with RXF 393 renal was greater than 100 µM in each case. The molecule further had a TGI with T-47D breast greater than 100 µM.
As for `Cc1cc(S(=O)(=O)N=C2Nc3cccc4cccc(c34)N2)c(S)cc1Cl`, the TGI in the test with UACC-62 melanoma, in the test on UACC-257 melanoma, with HCT-15 colon, with NCI-H460 lung, with RPMI-8226 leukemia and in the test with RXF 393 renal was greater than 100 µM in each case. The molecule also showed a TGI with T-47D breast greater than 100 µM.
As for `CN1c2ccccc2C2=C(c3ccccc3)CC[C@@H](C(=O)N3C4CC5CC[C@@]4(CS3(=O)=O)C5(C)C)[C@@H]21` (stereo not given in full), the TGI in the test on UACC-62 melanoma, in the test with UACC-257 melanoma, with HCT-15 colon, with NCI-H460 lung, in the test with A498 renal and in the test on RPMI-8226 leukemia was greater than 100 µM in each case. Further, the TGI with T-47D breast is greater than 100 µM.
